Laboratory results published in the supplement of paper PMC5579334.
± gives the standard deviation of the averaged measurements.

What was measured:
[1] = system: HSC2 (primary human Schwann cells); assay: drug sensitivity score (DSS, CellTox-Green cytotoxicity, 72 h) (DSS (dimensionless)); higher = more cytotoxic; extreme values may be limits of the assay
Procedure, shortened: (§1)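 MPNST cell lines and primary human Schwann cells were incubated 72 h at 37 °C in 384-well plates holding five 10-fold compound dilutions. CellTox-Green was added before seeding at a final 1:1000 dilution and reported fluorescence from DNA released by disrupted cells. Signals were scaled to vehicle and positive-control wells, and cultures failing plate quality control were dropped. Drug sensitivity score and relative IC50 come from four-parameter logistic fits, with IC50 censored at the top concentration.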

[2] = system: HSC1 (primary human Schwann cells); assay: as above
Procedure, shortened: as §1

STS26T [3] = assay: as above
Procedure, shortened: as §1

ST8814 [4] = assay: as above
Procedure, shortened: as §1

S1507-2 [5] = assay: as above
Procedure, shortened: as §1

HS-PSS [6] = assay: as above
Procedure, shortened: as §1

YST-1 [7] = assay: drug sensitivity score (DSS, CellTiter-Glo viability, 72 h) (DSS (dimensionless)); higher = more sensitive; extreme values may be limits of the assay
Procedure, shortened: (§2)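 Viability was scored by CellTiter-Glo ATP luminescence, scaled from vehicle to positive-control wells, with duplicates averaged where present. The cells, MPNST lines and primary human Schwann cells at 750–1000 per well, sat 72 h at 37 °C, 5% CO2, in 384-well plates preprinted with each compound at five concentrations in 10-fold steps. Four-parameter logistic fits were run on the data. These fits give drug sensitivity score and relative IC50 censored at the top concentration, and percent inhibition is reported at the top concentration.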

S462 [8] = assay: as above
Procedure, shortened: as §2

[9] = system: HSC2 (primary human Schwann cells); assay: as above
Procedure, shortened: as §2

[10] = system: HSC1 (primary human Schwann cells); assay: as above
Procedure, shortened: as §2

STS26T [11] = assay: as above
Procedure, shortened: as §2

ST8814 [12] = assay: as above
Procedure, shortened: as §2

S1507-2 [13] = assay: as above
Procedure, shortened: as §2

HS-Sch-2 [14] = assay: as above
Procedure, shortened: as §2

HS-PSS [15] = assay: as above
Procedure, shortened: as §2

YST-1 [16] = assay: % inhibition of CellTiter-Glo viability at highest tested concentration (72 h), relative to DMSO and benzethonium chloride controls; higher = more inhibition
Procedure, shortened: as §2

S462 [17] = assay: as above
Procedure, shortened: as §2

[18] = system: HSC2 (primary human Schwann cells); assay: as above
Procedure, shortened: as §2

[19] = system: HSC1 (primary human Schwann cells); assay: as above
Procedure, shortened: as §2

STS26T [20] = assay: as above
Procedure, shortened: as §2

ST8814 [21] = assay: as above
Procedure, shortened: as §2

S1507-2 [22] = assay: as above
Procedure, shortened: as §2

HS-Sch-2 [23] = assay: as above
Procedure, shortened: as §2

HS-PSS [24] = assay: as above
Procedure, shortened: as §2

| Compound | drug sensitivity score [1] | drug sensitivity score [2] | drug sensitivity score (STS26T [3]) | drug sensitivity score (ST8814 [4]) | drug sensitivity score (S1507-2 [5]) | drug sensitivity score (HS-PSS [6]) | drug sensitivity score (YST-1 [7]) | drug sensitivity score (S462 [8]) | drug sensitivity score [9] | drug sensitivity score [10] | drug sensitivity score (STS26T [11]) | drug sensitivity score (ST8814 [12]) | drug sensitivity score (S1507-2 [13]) | drug sensitivity score (HS-Sch-2 [14]) | drug sensitivity score (HS-PSS [15]) | % inhibition (YST-1 [16]) [%] | % inhibition (S462 [17]) [%] | % inhibition [18] [%] | % inhibition [19] [%] | % inhibition (STS26T [20]) [%] | % inhibition (ST8814 [21]) [%] | % inhibition (S1507-2 [22]) [%] | % inhibition (HS-Sch-2 [23]) [%] | % inhibition (HS-PSS [24]) [%] |
| --- | --- | --- | --- | --- | --- | --- | --- | --- | --- | --- | --- | --- | --- | --- | --- | --- | --- | --- | --- | --- | --- | --- | --- | --- |
| CN(N=O)C(=O)N[C@@H]1[C@@H](O)[C@H](O)[C@@H](CO)O[C@@H]1O [Streptozocin] (max concentration tested 10000 nM) | 0 | 0 | 0 | 0 | 0.108 ± 0.15 | 0 | 0.32 | 0 | 0 | 0 | 0 | 0 | 0 | 0.37 | 1.36 | 9.13 | -6.63 ± 1.8 | -3.21 | -2.68 | -0.477 | 6.38 | -6.55 ± 6.7 | 15.2 | 7.67 |
| COc1cc(Nc2ncc(F)c(Nc3ccc4c(n3)NC(=O)C(C)(C)O4)n2)cc(OC)c1OC [Tamatinib] (max concentration tested 10000 nM) | 0.0662 | 0 | 0.558 | 0.113 | 0.0129 ± 0.018 | 0 | 0 | 0 | 3.08 | 5.11 | 0.0251 | 0.365 | 0 | 0.4 | 0 | -0.14 | 4.27 ± 6.2 | 36.1 | 37.9 | 10.2 | 11.9 | -0.148 ± 3.2 | 13.4 | 9.72 |
| COC1=CC(c2cc3ccccc3[nH]2)=N/C1=C\c1[nH]c(C)cc1C [Obatoclax] (max concentration tested 10000 nM) | 2.43 | 4.21 | 3.1 | 4.99 | 5.25 ± 0.56 | 0 | 2.23 | 7.25 ± 0.51 | 8.2 | 8.07 | 5.87 | 5.7 | 7.89 ± 1.2 | 2.53 | 2.94 | 25.6 | 89.3 ± 2.9 | 81.8 | 80.1 | 81.5 | 93.7 | 95.5 ± 2 | 31.2 | 39.5 |
| Cc1ccc(NC(=O)c2ccc(CN3CCN(C)CC3)cc2)cc1Nc1nc(-c2cccnc2)cs1 [Masitinib] (max concentration tested 10000 nM) | 0.804 | 2.96 | 3.63 | 4.31 | 4.73 ± 0.42 | 1.06 | 6.54 | 3.78 ± 0.14 | 3.5 | 3.32 | 4.23 | 4.79 | 7.556 ± 0.038 | 5.27 | 7.12 | 90.8 | 71.4 ± 5.9 | 54.6 | 65.1 | 80.8 | 87.5 | 96.25 ± 0.36 | 97.2 | 83.9 |
| CS(=O)(=O)c1ccc(C(=O)Nc2ccc(Cl)c(-c3ccccn3)c2)c(Cl)c1 [Vismodegib] (max concentration tested 10000 nM) | 0 | 0 | 0 | 0 | 0 | 0 | 0 | 0 | 0 | 0 | 0 | 0 | 0 | 1.12 | 0.05 | 6.14 | -4.72 ± 14 | -4.33 | -4.59 | 2.72 | -2.96 | 2.36 ± 1.7 | 17.3 | 13.9 |
| C/C(=C\c1csc(C)n1)[C@@H]1C[C@@H]2O[C@]2(C)CCC[C@H](C)[C@H](O)[C@@H](C)C(=O)C(C)(C)[C@@H](O)CC(=O)N1 [Ixabepilone] (max concentration tested 1000 nM) | 3.03 | 4.19 | 5.61 | 4.33 | 3.15 ± 0.92 | 0 | 3.86 | 4.444 ± 0.0091 | 4.2 | 7.72 | 4.72 | 3.83 | 3.26 ± 0.04 | 5.18 | 1.51 | 79 | 84.3 ± 4 | 62.1 | 69.7 | 92.9 | 79.1 | 62.7 ± 3.3 | 91.8 | 39.3 |
| O=C(Cc1ccc(-c2ccc(OCCN3CCOCC3)cc2)cn1)NCc1ccccc1 [KX2-391] (max concentration tested 10000 nM) | 13.8 | 11.4 | 32.1 | 30.1 | 18.5 ± 2.1 | 0 | 24 | 28.72 ± 0.17 | 22.7 | 21.4 | 29.4 | 25.2 | 22.6 ± 0.24 | 28.3 | 15.7 | 80.7 | 94.784 ± 0.091 | 86.6 | 75.7 | 92.4 | 83.5 | 75.8 ± 1.3 | 93.2 | 76.6 |
